Experimental data taken from article PMC8838590, “Recognition of Dimethylarginine Analogues by Tandem Tudor Domain Protein Spindlin1” (Molecules, 2022).
pKd: −log10 of the molar value. Starred links: 1 amine or outer side, 2 acyl side, 3 side chain; linkers in the order of their positions; H or OH if unused. Non-standard residues stand in square brackets, D forms with d. Residues, ends and D or L forms follow the SMILES beside them. Groups on a side chain read outwards from the residue. X3 = N=C(NCCC[C@H](N[*:1])C(=O)[*:2])N1CCCCC1; X2 = CCN(CC)C(=N)NCCC[C@H](N[*:1])C(=O)[*:2]; X4 = N=C(NCCC[C@H](N[*:1])C(=O)[*:2])N1CCCC1; X5 = CN(C)C(=N)NCCCC[C@H](N[*:1])C(=O)[*:2]; X6 = CCN(C)C(=N)NCCC[C@H](N[*:1])C(=O)[*:2]; X1 = CN(C)C(=N)NCC[C@H](N[*:1])C(=O)[*:2]; Lys(Me3) = C[N+](C)(C)CCCC[C@H](N)C(=O)O; Orn = NCCC[C@H](N)C(=O)O; CO = O=C([*:1])[*:2]

Assays:
Spindlin1 (SPIN1_49-262) = biological target: T1, Spindlin1 (SPIN1_49-262) (Homo sapiens, UniProt Q9Y657); assay: Isothermal titration calorimetry of 15-mer H3K4me3X8 peptides binding to Spindlin1; conditions: ITC; for ΔH° / −TΔS°: 25.0 °C, 20 mM Tris, 100 mM NaCl pH 8.0, mean ± SD of 3 repeated ITC experiments
T1 construct: SPIN1_49-262 was expressed and purified as described previously; His tag; made in house; host or cells: E. coli BL21
Method: Spindlin1 was dialysed against ITC buffer containing 100 mM NaCl and 20 mM Tris HCl buffer (pH 8.0).
SPIN1_49-262 was expressed and purified as described previously. Briefly, His-tagged SPIN1 was expressed in E.coli strain BL21 at 37 °C until OD600 = 2.0. Protein expression was induced by the addition of 0.1 mM IPTG, followed by incubation at 18 °C overnight. Bacteria were harvested by centrifugation and subsequent resuspension of the pellet in buffer containing 50 mM Hepes pH 7.5, 500 mM NaCl, 10 mM Imidazole, 5% glycerol, 0.5 mM TCEP, and a protease inhibitor cocktail (Sigma, St. Louis, MO, USA). After lysis and centrifugation, His-tagged SPIN1 was affinity purified by Ni^2+-NTA-agarose chromatography (Cytiva, Marlborough, MA, USA) applying a gradient of imidazole. Subsequent size exclusion chromatography (Superdex 75, Cytiva) was performed with buffer containing 10 mM Hepes pH 7.5, 500 mM NaCl, 5% glycerol, and 0.5 mM TCEP.
Isothermal titration calorimetry was performed at 25 °C on a fully automated Microcal Auto-iTC200 (GE Healthcare Life Sciences, Marlborough, MA, USA). SPIN1_49-262 was dialysed against ITC buffer containing 20 mM Tris, 100 mM NaCl pH 8.0. Titrations were carried out with an initial injection of 0.5 μL, followed by 19 injections of 2 μL at a total concentration of 20 μM SPIN1_49-262 and 150-370 μM peptide. Fitting and analyses of the acquired titration curves were performed with Origin 6.0 (Microcal Inc., Northampton, MA, USA) using the One Set of Binding Sites model.

[1] = biological target: H3K4me3K9me3 peptide (Homo sapiens) (UniProt P68431); conditions: cited from earlier work
[2] = biological target: H3K4me3R8me2s peptide (Homo sapiens) (UniProt P68431); conditions: cited from earlier work
[3] = biological target: H3K4me3R8me2a 10-mer peptide (Homo sapiens) (UniProt P68431); conditions: cited from earlier work
[4] = biological target: H3K4me3R8me1 peptide (Homo sapiens) (UniProt P68431); conditions: cited from earlier work
[5] = biological target: H4K20me3 peptide (Homo sapiens) (UniProt P62805); conditions: cited from earlier work

Spindlin1, sequence (Q9Y657 whole entry): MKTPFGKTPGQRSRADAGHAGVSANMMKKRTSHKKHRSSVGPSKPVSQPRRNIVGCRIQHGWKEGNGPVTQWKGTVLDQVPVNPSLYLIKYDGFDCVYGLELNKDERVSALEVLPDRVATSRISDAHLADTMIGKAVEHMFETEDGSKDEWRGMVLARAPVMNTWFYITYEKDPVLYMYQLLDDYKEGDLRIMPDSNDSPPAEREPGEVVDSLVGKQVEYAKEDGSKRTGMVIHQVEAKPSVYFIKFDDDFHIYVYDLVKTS
T1 sequence (Q9Y657 49-262): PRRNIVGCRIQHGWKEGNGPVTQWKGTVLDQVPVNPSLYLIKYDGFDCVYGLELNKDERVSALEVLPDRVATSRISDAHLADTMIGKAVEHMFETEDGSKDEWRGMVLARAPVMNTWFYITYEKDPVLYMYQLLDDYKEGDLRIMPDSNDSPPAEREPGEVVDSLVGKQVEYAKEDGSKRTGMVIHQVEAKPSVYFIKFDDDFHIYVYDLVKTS

Compound | ΔH° (Spindlin1 (SPIN1_49-262); SD) [kcal/mol] | −TΔS° (Spindlin1 (SPIN1_49-262); SD) [kcal/mol] | further results
C[C@H](N)C(=O)N[C@@H](CCCNC(=N)N)C(=O)N[C@H](C(=O)N[C@@H](CCCC[N+](C)(C)C)C(=O)N[C@@H](CCC(N)=O)C(=O)N[C@H](C(=O)N[C@@H](C)C(=O)N[C@@H](CCCNC(=O)N(C)C)C(=O)N[C@@H](CCCCN)C(=O)N[C@@H](CO)C(=O)N[C@H](C(=O)NCC(=O)NCC(=O)N[C@@H](CCCCN)C(=O)N[C@@H](C)C(N)=O)[C@@H](C)O)[C@@H](C)O)[C@@H](C)O [H3K4me3Cit8me2] (H-ART[Lys(Me3)]QTA[Orn]([CO-NMe2])KSTGGKA-NH2) | -15.6 ± 0.3 | 5.9 ± 0.2 | ΔΔH° (Spindlin1 (SPIN1_49-262); relative to H3K4me3R8me2a): 1.7 kcal/mol; −TΔΔS° (Spindlin1 (SPIN1_49-262); relative to H3K4me3R8me2a): -1.1 kcal/mol
C[C@H](N)C(=O)N[C@@H](CCCNC(=N)N)C(=O)N[C@H](C(=O)N[C@@H](CCCC[N+](C)(C)C)C(=O)N[C@@H](CCC(N)=O)C(=O)N[C@H](C(=O)N[C@@H](C)C(=O)N[C@@H](CCCNC(=N)N1CCCCC1)C(=O)N[C@@H](CCCCN)C(=O)N[C@@H](CO)C(=O)N[C@H](C(=O)NCC(=O)NCC(=O)N[C@@H](CCCCN)C(=O)N[C@@H](C)C(N)=O)[C@@H](C)O)[C@@H](C)O)[C@@H](C)O [H3K4me3R8pip] (H-ART[Lys(Me3)]QTA[X3]KSTGGKA-NH2) | -20.9 ± 0.3 | 11.2 ± 0.1 | –
C[C@H](N)C(=O)N[C@@H](CCCNC(=N)N)C(=O)N[C@H](C(=O)N[C@@H](CCCC[N+](C)(C)C)C(=O)N[C@@H](CCC(N)=O)C(=O)N[C@H](C(=O)N[C@@H](C)C(=O)N[C@@H](CCCNC(=N)N(C)C)C(=O)N[C@@H](CCCCN)C(=O)N[C@@H](CO)C(=O)N[C@H](C(=O)NCC(=O)NCC(=O)N[C@@H](CCCCN)C(=O)N[C@@H](C)C(N)=O)[C@@H](C)O)[C@@H](C)O)[C@@H](C)O [H3K4me3R8me2a] | -17.3 ± 1.9 | 7.0 ± 1.9 | ΔH° (Spindlin1 (SPIN1_49-262)): -17.3 kcal/mol; −TΔS° (Spindlin1 (SPIN1_49-262)): 7.0 kcal/mol
C[C@H](N)C(=O)N[C@@H](CCCNC(=N)N)C(=O)N[C@H](C(=O)N[C@@H](CCCC[N+](C)(C)C)C(=O)N[C@@H](CCC(N)=O)C(=O)N[C@H](C(=O)N[C@@H](C)C(=O)N[C@@H](CCNC(=N)N(C)C)C(=O)N[C@@H](CCCCN)C(=O)N[C@@H](CO)C(=O)N[C@H](C(=O)NCC(=O)NCC(=O)N[C@@H](CCCCN)C(=O)N[C@@H](C)C(N)=O)[C@@H](C)O)[C@@H](C)O)[C@@H](C)O [H3K4me3nR8me2a] (H-ART[Lys(Me3)]QTA[X1]KSTGGKA-NH2) | -16.9 ± 1.3 | 6.8 ± 1.2 | –
C[C@H](N)C(=O)N[C@@H](CCCNC(=N)N)C(=O)N[C@H](C(=O)N[C@@H](CCCC[N+](C)(C)C)C(=O)N[C@@H](CCC(N)=O)C(=O)N[C@H](C(=O)N[C@@H](C)C(=O)N[C@@H](CCCNC(=N)N1CCCC1)C(=O)N[C@@H](CCCCN)C(=O)N[C@@H](CO)C(=O)N[C@H](C(=O)NCC(=O)NCC(=O)N[C@@H](CCCCN)C(=O)N[C@@H](C)C(N)=O)[C@@H](C)O)[C@@H](C)O)[C@@H](C)O [H3K4me3R8pyr] (H-ART[Lys(Me3)]QTA[X4]KSTGGKA-NH2) | -22.5 ± 0.4 | 13.0 ± 0.5 | –
CCN(CC)C(=N)NCCC[C@H](NC(=O)[C@H](C)NC(=O)[C@@H](NC(=O)[C@H](CCC(N)=O)NC(=O)[C@H](CCCC[N+](C)(C)C)NC(=O)[C@@H](NC(=O)[C@H](CCCNC(=N)N)NC(=O)[C@H](C)N)[C@@H](C)O)[C@@H](C)O)C(=O)N[C@@H](CCCCN)C(=O)N[C@@H](CO)C(=O)N[C@H](C(=O)NCC(=O)NCC(=O)N[C@@H](CCCCN)C(=O)N[C@@H](C)C(N)=O)[C@@H](C)O [H3K4me3R8et2a] (H-ART[Lys(Me3)]QTA[X2]KSTGGKA-NH2) | -19.3 ± 0.6 | 9.3 ± 0.6 | –
C[C@H](N)C(=O)N[C@@H](CCCNC(=N)N)C(=O)N[C@H](C(=O)N[C@@H](CCCC[N+](C)(C)C)C(=O)N[C@@H](CCC(N)=O)C(=O)N[C@H](C(=O)N[C@@H](C)C(=O)N[C@@H](CCCCNC(=N)N(C)C)C(=O)N[C@@H](CCCCN)C(=O)N[C@@H](CO)C(=O)N[C@H](C(=O)NCC(=O)NCC(=O)N[C@@H](CCCCN)C(=O)N[C@@H](C)C(N)=O)[C@@H](C)O)[C@@H](C)O)[C@@H](C)O [H3K4me3hR8me2a] (H-ART[Lys(Me3)]QTA[X5]KSTGGKA-NH2) | -20.9 ± 0.7 | 11.0 ± 0.7 | –
Spindlin1 (from UniProt Q9Y657) | – | – | pKd [1]: 7.80; pKd [2]: 7.18; pKd [3]: 7.35; pKd [4]: 6.86; pKd [5]: 6.10
CCN(C)C(=N)NCCC[C@H](NC(=O)[C@H](C)NC(=O)[C@@H](NC(=O)[C@H](CCC(N)=O)NC(=O)[C@H](CCCC[N+](C)(C)C)NC(=O)[C@@H](NC(=O)[C@H](CCCNC(=N)N)NC(=O)[C@H](C)N)[C@@H](C)O)[C@@H](C)O)C(=O)N[C@@H](CCCCN)C(=O)N[C@@H](CO)C(=O)N[C@H](C(=O)NCC(=O)NCC(=O)N[C@@H](CCCCN)C(=O)N[C@@H](C)C(N)=O)[C@@H](C)O [H3K4me3R8etme] (H-ART[Lys(Me3)]QTA[X6]KSTGGKA-NH2) | -20.8 ± 0.6 | 11.2 ± 0.6 | –
